In brackets after ≈: the same amount, converted by molar mass.
Columns and labels:
[1] = MTT cytotoxicity against raw macrophages; type: cell-based, albino rats; conditions: albino, rat; for viability at 24 h, 1 µM / viability at 24 h, 10 µM / viability at 24 h, 50 µM / viability at 24 h, 100 µM: peritoneal macrophages (raw macrophages), raw macrophages, MTT, read-out: % Cell Viability; for IC50 at 24 h: primary peritoneal macrophages, mean ± SEM, n = 3
Procedure: The % cell viability of the synthetic library was evaluated in vitro by measuring the mitochondrial dehydrogenase activity (MTT test) on raw macrophages.
The cytotoxic potential was assessed by using an MTT 3-(4,5-dimethyl thiazole-2-yl)-2,5- diphenyl tetrazolium bromide assay. Briefly, macrophages were extracted from the peritoneal cavity of albino rats and plated at a density of 1 × 10^6 per well in a 96-well plate and incubated in a 5% CO2 incubator at 37 °C for 24 h. The cells were treated with various concentrations of the test compounds (100 µM, 50 µM, 10 µM and 1 µM) or vehicle alone. The test compounds were first dissolved in DMSO to make a 100 mM stock solution and then further dilutions were made from this stock solution. After 24 h of incubation, 20 µL of MTT (1 mg/mL in normal saline) was added into each well and incubated under the same conditions for 2 h. Mitochondrial succinate dehydrogenase converted MTT in live cells into purple formazan crystals. The formazan crystals were then solubilized in 100 µL DMSO, and the absorbance was measured at 570 nm. The % cell viability was calculated by the following formula; % cell viability = (abssample − absblank)/(abscontrol − absblank) × 100

brine shrimp nauplii = assay: Brine shrimp lethality bioassay; type: in vivo; conditions: 24 h, n = 3
Procedure: Brine shrimp eggs were hatched in a shallow rectangular plastic dish and filled with artificial seawater, which was prepared with a commercial salt mixture. In a 96-well plate, 150 µL of artificial seawater was added and 10 nauplii were added into this. Test compounds (400, 200, 100 and 50 µg/mL) were added into each well and the final volume was made up by adding the artificial seawater. The well plate was left uncovered under a lamp. The number of surviving shrimps were counted and recorded after 24 h. The test was repeated in triplicate. […] The percentage mortality (%M) was also calculated by dividing the number of dead nauplii by the total number and then multiplied by 100.

[2] = DPPH free radical scavenging assay; conditions: mean ± SEM, n = 3; for IC50 (DPPH radical scavenging): concentration to scavenge 50% of the DPPH radicals
Procedure: The % free radical scavenging activity (%FRSA) of the synthetic compounds was evaluated by the discoloration of an unstable DPPH reagent to the stable yellow-colored 2,2-diphenyl-1-picrylhydrazine molecule by accepting one electron from a donor antioxidant; the mechanism is shown in Scheme 2.
The % FRSA (free radical scavenging activity) of the synthetic compounds was determined by using the method of Tai et al. with slight modifications. The antioxidant potential was determined by detecting the capacity of the synthetic compounds to quench the DPPH free radicals. The synthetic compounds were taken in a 96-well plate at three-fold concentrations of 200 µg/mL, 66.6 µg/mL, 22.2 µg/mL and 7.4 µg/mL. DPPH free radicals were added to entire wells to make up the volume up to 200 µL. DMSO and ascorbic acid were taken as negative and positive controls, respectively. The absorbance was taken at 630nm using a microplate reader (ELx800 BioTek). The percentage of scavenging activity was calculated by the given formula:% scavenging activity = (1 − Abs/Abc) × 100
Abs = sample’s absorbance; Abc = control’s absorbance.

[3] = system: NO generated by LPS-induced macrophages; assay: Nitric oxide assay (Griess) in LPS-induced macrophages; type: cell-based, murine; conditions: Mus musculus, Macrophage, 18 h, LPS 1 µg/mL, read-out: % NO Production (Mean ± SEM)
Procedure: A Griess reagent, a spectrophotometric determination of nitrite level, was carried out to measure the nitrite level in the conditioned medium of macrophages treated with lipopolysaccharide (LPS). Sodium nitrite (NaNO2) was used as a standard compound for the standard curve (Figure 8). The NO concentrations were obtained using the standard curve equation: y = 0.0083x + 0.0017, R^2 = 0.9999, where y is the absorbance at 540 nm and x is the NO concentration in µM. The inhibitory activity of the tested compounds towards NO generated by LPS-induced macrophages was obtained from the calculated value of x.
The anti-inflammatory effect of the synthesized compounds in murine macrophages was evaluated by using the Griess reaction method, described previously. In brief, 1 × 10^6 were plated in a 96-well plate and incubated in a 5% CO2 incubator at 37 °C for 24 h, pre-treated with different concentrations (100 µM, 50 µM, 10 µM and 1 µM) of synthetic compounds for another 2 h and challenged with LPS (1 µg/mL) for an additional 18 h. Equal volumes of Griess reagent (1% sulphanilamide in 50% phosphoric acid and 0.1% naphthyl ethylenediamine dihydrochloride in distilled water and vortexed) and culture medium were mixed and the absorbance was taken at 540 nm. Lipopolysaccharide (LPS) was taken as a blank and piroxicam was taken as a positive control. A t-test was applied to determine the significance of the results.

[4] = Total reducing power (TRP) assay
Procedure: A TRP assay was carried out to evaluate the reducing potential of synthetic compounds. The method implicates reductones. These reductones are species with antioxidant potential that is believed to be due to their proton-donating capacity. […] The maximum value of reducing power was 104.7 ± 1.9 µg/AAE for SF5, followed by 103.18 ± 2.4 µg/AAE for SF7 and 84.57 ± 1.9 µg/AAE for SF12 (Figure 3 and Figure 4 (standard curve)).
The assay is based on the reduction of Fe^+3 to Fe^+2. The method described by Khan et al. was used with slight modifications. One hundred microliters of test samples (4 mg/mL DMSO) were taken in an Eppendrof tube and 200 μL of phosphate buffer (0.2 mol/L, pH 6.6) and 250 µL of 1% potassium ferricyanide (K3Fe CN)6) were added. This was allowed to incubate at 50 °C for 20 min. Later on, 200 μL of 10% trichloroacetic acid (TCA) was added to the mixture. The mixture was centrifuged at 3000 rpm at room temperature for 10 min. After centrifugation, 150 µL of supernatant were transferred to microplate with FeCl3 (50 μL, 0.1%) and the absorbance was taken at 630 nm. The results were calculated as µg AAE/mg.

[5] = Phosphomolybdenum-based total antioxidant capacity (TAC)
Procedure: In the presence of an antioxidant, the phosphomolybdate ion gets reduced and a green phosphate–molybdate complex is formed, which is analyzed spectrophotometrically.
The total antioxidant capacity was determined by using the phosphomolybdenum-based method. The method is based on the reduction of Mo (VI) to Mo (V), leading to the formation of a green-colored phosphate–molybdenum complex that gives absorption at 630 nm. In 96-well plates, 20 µL of the sample was added with 180 µL TAC reagents in it and incubated at 95 °C for 90 min in a water bath and cooled at room temperature. The results were calculated as µg AAE/mg.

IC50 (DPPH radical scavenging) [2] [µg/mL]	SMILES	viability at 24 h, 1 µM [1] [%]	viability at 24 h, 10 µM [1] [%]	viability at 24 h, 50 µM [1] [%]	viability at 24 h, 100 µM [1] [%]	IC50 at 24 h [1] [µM]	LD50 ± SEM (brine shrimp lethality) (brine shrimp nauplii) [µg/mL]	% DPPH Scavenging Activity ([2]; 7.4 µg/mL) [%]	% DPPH Scavenging Activity ([2]; 22.22 µg/mL) [%]	% DPPH Scavenging Activity ([2]; 66.66 µg/mL) [%]	% DPPH Scavenging Activity ([2]; 200 µg/mL) [%]	activity at 1 µM [3] [%]	activity at 10 µM [3] [%]	activity at 50 µM [3] [%]	activity at 100 µM [3] [%]	Total reducing power (TRP) [4]	Total antioxidant capacity (TAC) [5] [µg/AAE]
47.81 ± 0.27 (≈ 171 µM)	CC(=O)N(CN1CCCc2ccccc21)c1ccccc1 [SF10, N-((3,4-dihydroquinolin-1(2H)-yl)methyl)-N-phenylacetamide]	100 ± 0.88	95 ± 0.93	80 ± 1.24	76 ± 1.2	24.8 ± 0.269	196.1 ± 1.12	23.45 ± 0.28	31.89 ± 0.21	40.77 ± 0.31	49.73 ± 0.19	62.4 ± 0.65	58.5 ± 0.59	42.5 ± 0.54	33.84 ± 0.33	no activity	–
39.33 ± 0.28 (≈ 147 µM)	COc1ccc(NCN2CCCc3ccccc32)cc1 [SF12, N-((3,4-dihydroquinolin-1(2H)-yl)methyl)-4-methoxyaniline]	87 ± 0.82	84 ± 0.87	57 ± 0.89	41 ± 0.86	35.1 ± 0.5	128 ± 1.87	11.24 ± 0.11	31.80 ± 0.42	54.10 ± 0.17	64.20 ± 0.31	49.7 ± 0.61	32.3 ± 0.59	26.5 ± 0.578	23.2 ± 0.55	84.57 ± 1.9 µg/AAE	191.19 ± 1.1231

— paper PMC7321408, “One-Pot Multicomponent Synthesis and Bioevaluation of Tetrahydroquinoline Derivatives as Potential Antioxidants, α-Amylase Enzyme Inhibitors, Anti-Cancerous and Anti-Inflammatory Agents” (Molecules, 2020)
